A word on the IC50: it is the concentration that inhibits the measured activity by half.

For 65 compounds, IC50 results are on record in US12577217B2, “15-PGDH inhibitor” (KYORIN Pharmaceutical Co., Ltd., priority 2019, dated 2026).

In this test the target is T1, recombinant human 15-PGDH (Homo sapiens, UniProt P15428).
T1 construct: purchased R&D Systems
T1 sequence (P15428 1-266): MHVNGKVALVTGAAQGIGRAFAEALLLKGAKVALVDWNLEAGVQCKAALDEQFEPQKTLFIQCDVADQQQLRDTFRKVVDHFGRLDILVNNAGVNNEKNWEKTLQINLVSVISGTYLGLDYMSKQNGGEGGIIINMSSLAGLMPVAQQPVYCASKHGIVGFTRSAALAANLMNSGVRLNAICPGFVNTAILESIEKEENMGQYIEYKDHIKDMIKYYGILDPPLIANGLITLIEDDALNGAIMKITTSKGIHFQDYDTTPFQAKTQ
The experiment in a line: 15-PGDH enzyme inhibition test. Type of test: biochemical. The conditions noted are these: 4 nM recombinant human 15-PGDH, 30 μM PGE2, 1 mM NAD+, 60 minutes after starting the reaction; read-out: IC50 Value. A digest of the protocol:
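4 nM recombinant human enzyme pre-incubated with compound 12 min at room temperature in 50 mM Tris-HCl pH 8.0 with 0.01% Tween 20 and 0.01% bovine gamma globulin. Reaction started with 30 μM PGE2 and 1 mM NAD+, read after 60 min by fluorescence (ex 340/em 440 nm). IC50 from concentration-response curve.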

With `CCCCN1Cc2cc(N3CCOc4cc(C(=O)N5CCCCC5)cnc43)ccc2C1=O` [Example 1-223], the IC50 is below 10 nM.

In the case of `COC(=O)c1ccc(N2CCc3cc(C(=O)N4CCCCC4)ccc32)cc1` [Example 1-140], the IC50 is below 10 nM. In the case of `CCn1nc2cc(N3CCOc4cc(C(=O)N5CC=CCC5)cnc43)ccn2c1=O` [Example 8-217] it was below 10 nM. In the case of `Cn1nc2cc(N3CCOc4cc(C(=O)N5CCC(F)(F)CC5)sc43)ccn2c1=O` [Example 8-223] it was 10 to 100 nM; in that of `O=C(O)CCc1ccc(N2CCOc3cc(C(=O)N4CCCCC4)ccc32)cc1` [Example 2-33], below 10 nM; in that of `Cn1nc2cc(N3CCOc4cc(C(=O)N5CCCCC5)ccc43)ccn2c1=O` [Example 1-25], below 10 nM.

Consider `CN1CCN(C(=O)c2cnc3c(c2)OCCN3c2ccc(C(=O)O)cc2)CC1` [Example 4-11], for which the IC50 is 10 to 100 nM. In the case of `Cn1nc2cc(N3CCCc4cc(C(=O)N5CCC[C@H](C(F)(F)F)C5)cnc43)ccn2c1=O` [Example 8-146] it was below 10 nM; in that of `CCn1nc2cc(N3CCOc4cc(C(=O)N5CCCCC56COC6)cnc43)ccn2c1=O` [Example 8-218], above 100 nM; in that of `CCN1Cc2cc(N3CCCc4cc(C(=O)N5CCC(C)CC5)cnc43)ccc2C1=O` [Example 8-80], below 10 nM.

Regarding `COC(=O)c1ccc2nc(N3CCOc4cc(C(=O)N5CCCCC5)cnc43)cn2c1` [Example 11-5], the IC50 was above 100 nM.

With `O=C(O)c1ccc(N2CCOc3cc(C(=O)N4CCC[C@@H](F)C4)cnc32)cc1` [Example 4-7], the IC50 is below 10 nM. For the compound `Cn1nc2cc(N3CCOc4cc(C(O)C5CCCCC5)cnc43)ccn2c1=O` (centres unmarked) [Example 19-1, 7-(7-(Cyclohexyl(hydroxy)methyl)-2,3-dihydro-4H-pyrido[3,2-b] [1,4]oxazin-4-yl)-2-methyl-[1,2,4]triazolo[4,3-a]pyridin-3 (2H)-one], the IC50 was below 10 nM. In the case of `C[C@H]1COc2cc(C(=O)N3CCCCC3)ccc2N(c2ccn3c(=O)n(C)nc3c2)C1` [Example 1-95], the IC50 is below 10 nM. The result for `Cn1nc2cc(N3CCCc4cc(C(=O)N5CCC[C@@H](C(F)(F)F)C5)cnc43)ccn2c1=O` [Example 8-145] reads 10 to 100 nM; that for `CN1Cc2cc(N3CCOc4cc(C(=O)N5CCC(F)(F)CC5)cnc43)ccc2C1=O` [Example 1-127], below 10 nM. On to `COc1ccc(N2CCOc3cc(C(=O)N4CCCCC4)cnc32)cc1` [Example 1-245], for which the IC50 lay in the range of 10 to 100 nM. In the case of `COCCOCCn1nc2cc(N3CCCc4cc(C(=O)N5CCC[C@H](CF)C5)cnc43)ccn2c1=O` [Example 1-118] it was below 10 nM; in that of `CNC(=O)c1cc2ccc(N3CCOc4cc(C(=O)N5CCCCC5)cnc43)cc2n1C` [Example 6-11], 10 to 100 nM; in that of `Cn1nc2cc(N3CCN(c4ccc(C#N)cc4)c4cc(C(=O)N5CCC(F)(F)CC5)cnc43)ccn2c1=O` [Example 30-2], 10 to 100 nM. As to `Cn1nc2cc(N3CCCc4cc(C(=O)N5CCC[C@@H](F)C5)cnc43)ccn2c1=O` [Example 8-137], the IC50 was below 10 nM. The result for `CN(C)C1CCCN(C(=O)c2cnc3c(c2)OCCN3c2ccn3c(=O)n(C)nc3c2)C1` (centres unmarked) [Example 33-1, 7-(7-(3-(Dimethylamino)piperidine-1-carbonyl)-2,3-dihydro-4H-pyrido[3,2-b] [1,4]oxazin-4-yl)-2-methyl-[1,2,4]triazolo[4,3-a]pyridin-3(2H)-one] reads above 100 nM; that for `CN1C(=O)C(C)(C)c2ccc(N3CCOc4cc(C(=O)N5CCCCC5)cnc43)cc21` [Example 1-248], above 100 nM; that for `Cn1nc2cc(N3CCOc4cc(C(=O)N5C[C@H]6C[C@@H](C5)C6)cnc43)ccn2c1=O` [Example 8-40], below 10 nM. The result for `CC1c2cc(N3CCOc4cc(C(=O)N5CCCCC5)cnc43)ccc2C(=O)N1C` (single isomer, unassigned) [16-1 Isomer A] reads below 10 nM. For `CCN1Cc2cc(N3CCCc4cc(C(=O)N5CCOCC5)cnc43)ccc2C1=O` [Example 8-72], the IC50 is below 10 nM. On to `Cn1nc2cc(N3CCOc4cc(C(=O)N5CCC[C@H]5C(=O)OC(C)(C)C)cnc43)ccn2c1=O` [Example 8-227], for which the IC50 is above 100 nM. As for `COC(=O)c1ccc(N2CCOc3cc(C(=O)N4CCCCC4)ccc32)cc1` [Example 1-7], the IC50 was below 10 nM. In the case of `CC(O)CCNC(=O)c1cnc2c(c1)OCCN2c1ccn2c(=O)n(C)nc2c1` (centres unmarked) [Example 8-180] it was 10 to 100 nM; in that of `Cn1nc2cc(N3CCCOc4cc(C(=O)N5CCCCC5)cnc43)ccn2c1=O` [Example 1-99], below 10 nM; in that of `O=C(c1cnc2c(c1)OCCN2c1ccn2c(=O)[nH]nc2c1)N1CCCCC1` [Example 1-30], below 10 nM. In the case of `O=C(c1cnc2c(c1)OCCN2c1ccn2c(=O)n(Cc3ccc(F)cc3F)nc2c1)N1CCC(F)(F)CC1` [Example 27-5] it was below 10 nM.

As to `CCN(CC(C)O)C(=O)c1cnc2c(c1)OCCN2c1ccn2c(=O)n(C)nc2c1` (centres unmarked) [Example 8-179], the IC50 was 10 to 100 nM.

`CN(C)C(=O)c1ccc(N2CCOc3cc(C(=O)N4CCCCC4)cnc32)cc1` [Example 6-19]: the IC50 was below 10 nM. The result for `Cn1nc2cc(N3CCCOc4cc(C(=O)N5CCC5)cnc43)ccn2c1=O` [Example 8-57] reads below 10 nM. As to `Cn1nc2cc(N3CCN(c4cccnc4)c4cc(C(=O)N5CCC(F)(F)CC5)cnc43)ccn2c1=O` [Example 30-5], the IC50 is above 100 nM. In the case of `Cn1nc2cc(N3CCOc4cc(C(=O)N5CCCC5(C)C)cnc43)ccn2c1=O` [Example 8-173] it was 10 to 100 nM. As for `Cn1ccc2cc(N3CCCc4cc(C(=O)N5CCC(F)(F)CC5)cnc43)ccc2c1=O` [Example 1-182], the IC50 was below 10 nM. As to `CCn1nc2cc(N3CCCc4cc(C(=O)N5CCc6ccccc6C5)cnc43)ccn2c1=O` [Example 8-155], the IC50 is below 10 nM. On to `O=C(c1cnc2c(c1)OCCN2c1ccn2c(=O)n(Cc3ccc(F)cc3)nc2c1)N1CCCCC1` [Example 27-1], for which the IC50 was below 10 nM. For `COCCN1Cc2cc(N3CCOc4cc(C(=O)N5CCC(F)(F)CC5)cnc43)ccc2C1=O` [Example 1-49], the half-inhibitory concentration (IC50) is below 10 nM. The result for `Cn1nc2cc(N3CCOc4cc(C(=O)N5CCCC(F)(F)C5)cnc43)ccn2c1=O` [Example 8-24] reads below 10 nM; that for `Cn1nc2cc(N3CCOc4cc(C(=O)N5C[C@@H]6CC[C@@H](C6)C5)cnc43)ccn2c1=O` [Example 8-39], below 10 nM. On to `Cn1cnc2cc(N3CCOc4cc(C(=O)N5CCC(F)(F)CC5)cnc43)ccc2c1=O` [Example 1-226], for which the IC50 is below 10 nM.

For the compound `NC(=O)c1ccc(N2CCOc3cc(C(=O)N4CCCCC4)cnc32)cc1F` [Example 6-4], the IC50 is below 10 nM. The result for `CCN1Cc2cc(N3CCCc4cc(C(=O)N5CCC[C@H](C(F)F)C5)cnc43)ccc2C1=O` [Example 8-94] reads below 10 nM. The result for `O=C(O)c1ccc(N2CCCOc3cc(C(=O)N4CCCCC4)cnc32)cc1` [Example 2-8] reads below 10 nM. With `CCn1nc2cc(N3CCCc4cc(C(=O)N5CCC(C)CC5)cnc43)ccn2c1=O` [Example 8-161], the IC50 is below 10 nM. Turning to `CN(CC(C)(C)O)C(=O)c1cnc2c(c1)OCCN2c1ccn2c(=O)n(C)nc2c1` [Example 8-182], the IC50 was in the range of 10 to 100 nM. In the case of `O=C(O)c1ccc(N2CCCSc3cc(C(=O)N4CCCCC4)ccc32)cc1` [Example 2-18] it was below 10 nM; in that of `CCN1Cc2cc(N3CCOc4cc(C(=O)N5CCCCC5)cnc43)ccc2C1=O` [Example 8-18], below 10 nM; in that of `CS(=O)(=O)Cc1ccc(N2CCOc3cc(C(=O)N4CCCCC4)ccc32)cc1` [Example 1-162], below 10 nM. The result for `O=C(c1cnc2c(c1)OCCN2c1ccc2cccnc2c1)N1CCCCC1` [Example 1-257] reads below 10 nM; that for `CN1Cc2cc(N3CCOc4cc(C(=O)N5CCCC(C)(F)C5)cnc43)ccc2C1=O` (centres unmarked) [Example 8-209], below 10 nM; that for `COCCn1nc2cc(N3CCCc4cc(C(=O)N5CCC[C@@H](CF)C5)cnc43)ccn2c1=O` [Example 1-123], below 10 nM. With `CCN1Cc2cc(N3CCCc4cc(C(=O)N5CC=CCC5)cnc43)ccc2C1=O` [Example 8-75], the IC50 was below 10 nM. The result for `Cn1nc2cc(N3CCOc4cc(C(=O)N5CCCC5)cnc43)ccn2c1=O` [Example 8-20] reads below 10 nM; that for `CC1CN(C(=O)c2cnc3c(c2)OCCN3c2ccc3c(c2)CN(C)C3=O)CCC1(F)F` (centres unmarked) [Example 8-210], below 10 nM; that for `CCOc1noc2cc(N3CCOc4cc(C(=O)N5CCC(F)(F)CC5)cnc43)ccc12` [Example 8-216], below 10 nM. In the case of `CCOCCn1nc2cc(N3CCOc4cc(C(=O)N5CCCCC5)cnc43)ccn2c1=O` [Example 1-269] it was below 10 nM; in that of `COc1cc(N2CCOc3cc(C(=O)N4CCCCC4)cnc32)ccc1C(=O)O` [Example 4-15], 10 to 100 nM. The result for `NC(=O)c1ccc(N2CCOc3cc(C(=O)N4CCCCC4)cnc32)cc1` [Example 6-17] reads below 10 nM; that for `CN(CC1CCCC1)C(=O)c1cnc2c(c1)OCCN2c1ccn2c(=O)n(C)nc2c1` [Example 17-3], below 10 nM; that for `CC1CCN(C(=O)c2cnc3c(c2)OCCN3c2ccc3c(c2)CN(C)C3=O)CC1` [Example 8-194], below 10 nM. Consider `COCCn1nc2cc(N3CCCc4cc(C(=O)N5CCC(F)(F)CC5)cnc43)ccn2c1=O` [Example 1-78], for which the IC50 is below 10 nM.
